Data published in the supplement of paper PMC11208160.

Assay: recombinant barcode read abundance after kanamycin selection (control-corrected) (log10(CPM+1)); higher = more efficient recombination; sequences stand for … in AGTGCAGAGAAAATCGGCCAGTTTTCTCTGCCTGCAGTCCGCATGCCGT…AGATTTATGCAGCGGACTGCCTTTCTCCCAAAGTGATAAACCGGACAGTATCATGGACCGGTTTTCCCGGTAATCCGTATTTGCAAGGTTGGTTTCACT; site = the 11-nt target
Procedure, shortened: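 Two replicates per condition were plated: chloramphenicol/ampicillin LB agar for the control, and chloramphenicol/ampicillin/kanamycin with 0.1 mM IPTG for selection. The pooled E. coli screen behind them paired targets with IS621 bridge RNA target-binding loops. Recombination efficiency is expressed from averaged, control-corrected barcode counts per million at recombinant junctions, as log10(CPM+1).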
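Note: IS621 recombinase and bridge RNA in Escherichia coli cells.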

Row | Sequence | recombinant barcode read abundance (log10)
1 | CCGCTACCTTGGGTTCTAACCTGTTGCCT (site CCGCTACCTAG) | 0.956
2 | CCGCTACCTTGGGTTCTAACCTGTTGCCT (site CGGCTACCTAG) | 0.103
3 | CCGCTACCTTGGGTTCTAACCTGTTGCCT (site CTGCTACCTAG) | 0.19
4 | CCGCTGTCTTGGGTTCTAACCTGTTGCCT (site CCGCTGTCTAG) | 0.394
5 | CCGCTGTCTTGGGTTCTAACCTGTTGCCT (site CCTCTGGCTAG) | 0.167
6 | CCGGACCCTTGGGTTCTAACCTGTTGCTG (site CCGGACCCTCA) | 2.49
7 | CCGGACCCTTGGGTTCTAACCTGTTGCTG (site CCGTGCCCTCA) | 0.336
8 | CCGGATGCTTGGGTTCTAACCTGTTGCCT (site CCGAATGCTAG) | 0.272
9 | CCGGATGCTTGGGTTCTAACCTGTTGCCT (site CCGCATGCTAG) | 0.117
10 | CCGGATGCTTGGGTTCTAACCTGTTGCCT (site CCGGATGCTAG) | 0.775
11 | CCGGATGCTTGGGTTCTAACCTGTTGCCT (site CCGTATGCTAG) | 0.0746
12 | CCGGATTCTTGGGTTCTAACCTGTTGCCT (site CCGGATTCTAG) | 1.69
13 | CCGGATTCTTGGGTTCTAACCTGTTGCCT (site CCGGTTGCTAG) | 0.369
14 | CCGGTAACTTGGGTTCTAACCTGTTGCCT (site CCGGTAACTAG) | 0.45
15 | CCGGTAACTTGGGTTCTAACCTGTTGCCT (site CCTGTAGCTAG) | 0.142
16 | CCGGTAGCTTGGGTTCTAACCTGTTGCCA (site CCGGTAGCTTG) | 0.443
17 | CCGGTAGCTTGGGTTCTAACCTGTTGCCA (site GCAGTAGCTTG) | 0.556
18 | CCGGTATCTTGGGTTCTAACCTGTTGCCT (site CCGATATCTAG) | 0.0308
19 | CCGGTATCTTGGGTTCTAACCTGTTGCCT (site CCGCTATCTAG) | 0.688
20 | CCGGTATCTTGGGTTCTAACCTGTTGCCT (site CCGGTATCTAG) | 0.197
21 | CCGGTATCTTGGGTTCTAACCTGTTGCCT (site CCGTTATCTAG) | 0.0727
22 | CCGGTGCCTTGGGTTCTAACCTGTTGCCT (site CAGGTGCCTAG) | 0.0703

Row | Sequence | recombinant barcode read abundance (log10)
23 | CCGGTGCCTTGGGTTCTAACCTGTTGCCT (site CCGGTGCCTAG) | 2.29
24 | CCGGTGCCTTGGGTTCTAACCTGTTGCCT (site CGGGTGCCTAG) | 1.03
25 | CCGGTGCCTTGGGTTCTAACCTGTTGCCT (site CTGGTGCCTAG) | 0.21
26 | CCGTAAGCTTGGGTTCTAACCTGTTGCCT (site CCGTAAACTAG) | 0.139
27 | CCGTAAGCTTGGGTTCTAACCTGTTGCCT (site CCGTAACCTAG) | 0.0711
28 | CCGTAAGCTTGGGTTCTAACCTGTTGCCT (site CCGTAAGCTAG) | 0.105
29 | CCGTAAGCTTGGGTTCTAACCTGTTGCCT (site CCGTAATCTAG) | 0.0655
30 | CCGTACTCTTGGGTTCTAACCTGTTGCCT (site CCGTACTCTAG) | 1.22
31 | CCGTACTCTTGGGTTCTAACCTGTTGCCT (site CCGTAGTCTAG) | 0.0897
32 | CCGTCTACTTGGGTTCTAACCTGTTGCCT (site CAGTCTACTAG) | 0.0408
33 | CCGTCTACTTGGGTTCTAACCTGTTGCCT (site CCGTCTACTAG) | 0.0187
34 | CCGTCTACTTGGGTTCTAACCTGTTGCCT (site CGGTCTACTAG) | 0.0454
35 | CCGTCTACTTGGGTTCTAACCTGTTGCCT (site CTGTCTACTAG) | 0.082
36 | CCGTCTACTTGGGTTCTAACCTGTTGCTA (site CCGTCTACTAA) | 0.02
37 | CCGTCTACTTGGGTTCTAACCTGTTGCTA (site CCGTCTACTCA) | 0.161
38 | CCGTCTACTTGGGTTCTAACCTGTTGCTA (site CCGTCTACTGA) | 0.125
39 | CCGTCTACTTGGGTTCTAACCTGTTGCTA (site CCGTCTACTTA) | 0.259
40 | CCGTGCCCTTGGGTTCTAACCTGTTGCGT (site CCGTGCCCTAC) | 1.92
41 | CCGTGCCCTTGGGTTCTAACCTGTTGCGT (site TCGTGCCCTAC) | 0.0224
42 | CCGTGCCCTTGGGTTCTAACCTGTTGCTG (site CCGGACCCTCA) | 0.111
43 | CCGTGCCCTTGGGTTCTAACCTGTTGCTG (site CCGTGCCCTCA) | 1.62
44 | CCTAAAACTTGGGTTCTAACCTGTTGCCT (site CCTAAAACTAG) | 0.0998

Row | Sequence | recombinant barcode read abundance (log10)
45 | CCTAAAACTTGGGTTCTAACCTGTTGCCT (site GAACTCTCTTA) | 0.0257
46 | CCTAACCCTTGGGTTCTAACCTGTTGCGT (site CCTAAACCTAC) | 0.39
47 | CCTAACCCTTGGGTTCTAACCTGTTGCGT (site CCTAACCCTAC) | 1.85
48 | CCTAACCCTTGGGTTCTAACCTGTTGCGT (site CCTAAGCCTAC) | 0.0306
49 | CCTAACCCTTGGGTTCTAACCTGTTGCGT (site CCTAATCCTAC) | 0.381
50 | CCTAAGACTTGGGTTCTAACCTGTTGCCA (site CCTAAGACTAG) | 0.08
51 | CCTAAGACTTGGGTTCTAACCTGTTGCCA (site CCTAAGACTCG) | 0.133
52 | CCTAAGACTTGGGTTCTAACCTGTTGCCA (site CCTAAGACTGG) | 0.0159
53 | CCTAAGACTTGGGTTCTAACCTGTTGCCA (site CCTAAGACTTG) | 0
54 | CCTAAGACTTGGGTTCTAACCTGTTGCCT (site CCTAAGACTAG) | 0.595
55 | CCTAAGACTTGGGTTCTAACCTGTTGCCT (site CCTAAGACTCG) | 0.0786
56 | CCTAAGACTTGGGTTCTAACCTGTTGCCT (site CCTAAGACTGG) | 0.0702
57 | CCTAAGACTTGGGTTCTAACCTGTTGCCT (site CCTAAGACTTG) | 0.0542
58 | CCTAAGCCTTGGGTTCTAACCTGTTGCAT (site CCTAAGCCTAT) | 0.859
59 | CCTAAGCCTTGGGTTCTAACCTGTTGCAT (site GGACGCACTCC) | 0.111
60 | CCTAATACTTGGGTTCTAACCTGTTGCTT (site ACTAATCCTAA) | 0.107
61 | CCTAATACTTGGGTTCTAACCTGTTGCTT (site CCTAATACTAA) | 0.155
62 | CCTACATCTTGGGTTCTAACCTGTTGCAT (site CCTACATCTAT) | 0.252
63 | CCTACATCTTGGGTTCTAACCTGTTGCAT (site CCTACATCTTA) | 0.0552
64 | CCTACATCTTGGGTTCTAACCTGTTGCCT (site CCTACAACTAG) | 0.124
65 | CCTACATCTTGGGTTCTAACCTGTTGCCT (site CCTACACCTAG) | 0.115
66 | CCTACATCTTGGGTTCTAACCTGTTGCCT (site CCTACAGCTAG) | 0.0484
